Assay results as given in patent publication US7524973B2, “Nitrate esters of phenylaminothiophenacetic acid derivatives” (Altana Pharma AG, priority 2003, dated 2009).

Key:
COX-1 = biological target: T1, COX-1 (Homo sapiens, UniProt P23219); test: In vitro Cox-1 assay (whole blood, TxB2); format: cell-based; conditions: fresh blood without anticoagulant, clotting 1 h at 37° C., TxB2 immunoassay; read-out: Inhibition of COX-1 activity [measured as pIC50] (converted)
T1 construct: Fresh blood was collected into vacutainers containing no anticoagulants; from tissue; host or cells: fresh whole blood without anticoagulant, allowed to clot
Description: Fresh blood was collected into vacutainers containing no anticoagulants. Aliquots of 450 μl were immediately transferred to deep well plates preloaded with 1 μl of either DMSO or a test compound at final concentration of 100 μM-10 nM. In addition 50 μl of Hydroxylamine/PBS were added and the tubes were vortexed and incubated at 37° C. for 1 h to allow the blood to clot. At the end of incubation, serum was obtained by centrifugation (2000 g/5 min) and the supernatant was assayed for TxB2 using a immunoassay kit (RD Systems, Germany) according to the manufactures instruction.
(§1) The data were analysed from 2-3 independent dose response curves with a nonlinear estimation program using GRAPHPAD/Prism and given as pIC50

COX-2 = biological target: T2, COX-2 (Homo sapiens, UniProt P35354); test: In vitro Cox-2 assay (LPS-stimulated whole blood, PGE2); format: cell-based; conditions: heparinized blood, LPS 24 h, PGE2 immunoassay; read-out: Inhibition of COX-2 activity [measured as pIC50] (converted)
T2 construct: Fresh blood was collected in heparinized (8 U/ml, Roche, Switzerland) tubes; from tissue; host or cells: heparinized fresh whole blood stimulated with LPS for 24 h
T2 sequence (P35354 18-604): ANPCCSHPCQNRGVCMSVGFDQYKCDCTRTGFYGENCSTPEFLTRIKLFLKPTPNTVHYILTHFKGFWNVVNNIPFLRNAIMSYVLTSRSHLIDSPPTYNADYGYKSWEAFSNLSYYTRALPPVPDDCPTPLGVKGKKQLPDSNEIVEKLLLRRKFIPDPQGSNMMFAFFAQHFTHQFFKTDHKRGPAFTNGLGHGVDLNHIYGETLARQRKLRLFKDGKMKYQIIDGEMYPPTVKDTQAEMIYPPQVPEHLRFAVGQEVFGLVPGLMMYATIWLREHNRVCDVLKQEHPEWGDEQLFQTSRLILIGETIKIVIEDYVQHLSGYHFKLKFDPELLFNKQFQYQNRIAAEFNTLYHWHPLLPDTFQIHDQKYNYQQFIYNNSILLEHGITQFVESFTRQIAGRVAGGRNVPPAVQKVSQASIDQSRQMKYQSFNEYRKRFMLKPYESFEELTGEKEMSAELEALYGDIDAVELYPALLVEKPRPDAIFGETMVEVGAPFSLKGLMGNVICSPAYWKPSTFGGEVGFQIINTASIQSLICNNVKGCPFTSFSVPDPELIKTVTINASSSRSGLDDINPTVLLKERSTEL
Description: Fresh blood was collected in heparinized (8 U/ml, Roche, Switzerland) tubes by venipuncture from both male and female volunteers with consent The subjects had no apparent inflammatory conditions and had not taken any NSAIDs for the last 7 days prior to blood collection. 450 μl aliquots of blood were incubated in deep wells with either 1 μl vehicle (DMSO) or 1 μl of test compound at a final concentration varying from 100 μM-10 nM for 15 min at 37° C. This was followed by incubation of the blood with 50 μl lipopolysaccharide (LPS, Sigma, Germany) 10 μg/ml in 0.1% Hydroxylamine/PBS (Sigma) for 24 h. At the end of incubation the blood was centrifuged at 2000 g for 5 min and […] supernatant was assayed for PGE2 using a immunoassay kit (RD Systems, Germany )
as §1

T1 sequence (P23219 24-599): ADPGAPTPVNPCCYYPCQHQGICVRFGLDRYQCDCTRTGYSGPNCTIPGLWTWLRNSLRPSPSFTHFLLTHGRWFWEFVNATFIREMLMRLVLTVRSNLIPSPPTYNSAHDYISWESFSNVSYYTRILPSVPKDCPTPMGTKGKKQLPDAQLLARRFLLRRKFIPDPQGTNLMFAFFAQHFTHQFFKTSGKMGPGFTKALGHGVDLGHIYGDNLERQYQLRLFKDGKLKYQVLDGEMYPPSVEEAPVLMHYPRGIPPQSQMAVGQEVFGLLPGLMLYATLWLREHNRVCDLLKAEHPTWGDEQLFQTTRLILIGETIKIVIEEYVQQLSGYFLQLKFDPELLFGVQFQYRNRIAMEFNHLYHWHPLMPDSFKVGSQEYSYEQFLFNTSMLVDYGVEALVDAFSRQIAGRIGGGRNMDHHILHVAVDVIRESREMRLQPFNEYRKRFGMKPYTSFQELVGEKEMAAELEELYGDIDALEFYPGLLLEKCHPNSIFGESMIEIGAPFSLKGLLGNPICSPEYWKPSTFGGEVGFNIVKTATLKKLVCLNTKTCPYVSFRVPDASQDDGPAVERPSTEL

IC50 (COX-1): 89.1 nM
IC50 (COX-2): 72.4 nM
SMILES: O=C(Cc1cscc1Nc1c(Cl)cccc1Cl)OCCCCO[N+](=O)[O-] [Compound 1, [4-(2,6-Dichlorophenylamino)-thiophen-3-yl]-acetic acid 4-nitrooxybutyl ester]
